In patent US10351534B2, “Use of 3-carboxy-N-ethyl-N,N-dimethylpropan-1-aminium salts in the treatment of cardiovascular disease” (JSC GRINDEKS, priority 2011, dated 2019):
Marks after values point to notes of the source that are not given here.

What was measured:
isolated rat heart = assay: Isolated rat heart infarction study (after p.o. treatment); assay type: in vivo; conditions: for Infarct size, % of control: 20 mg/kg p.o. daily, isolated Wistar rat heart, 60 min occlusion, 150-min reperfusion, mean±s.e.m. of 9-10 animals; for decrease of infarct size: 20 mg/kg p.o., isolated rat heart infarction model, versus control
Method: Fifty male, 10 weeks old Wistar rats weighing 200-250 g were housed under standard conditions (21-23° C., 12 h light-dark cycle) with unlimited access to food (R3 diet, Lactamin AB, Sweden) and water.
Rats were adapted to local conditions for two weeks before the start of treatment. Meldonium dihydrate at a dose of 20 mg/kg, gamma-butyrobetaine at a dose of 20 mg/kg and 3-carboxy-N-ethyl-N,N-dimethylpropan-1-aminium salts at dose of 20 mg/kg were administered p.o. daily for 8 weeks. Control rats received water.
The isolated rat heart experiment was performed essentially as described earlier (Liepinsh et al., J. Cardiovasc. Pharmacol. 2006; 48(6):314-9). Twenty-four hours after the last drug administration hearts were excised and retrogradely perfused via the aorta at a constant pressure with oxygenated Krebs-Henseleit buffer at 37° C. The heart rate, left ventricle end-diastolic pressure and left ventricle developed pressure were continuously recorded. Coronary flow was measured using an ultrasound flow detector (HSE) and the PowerLab 8/30 system from ADInstruments. The hearts were perfused for 20 min to stabilize the hemodynamic functions and then occlusion was performed for 60 min by constricting threads through a plastic tube. Successful occlusion was confirmed by a coronary flow decrease of about 40 percent. Reperfusion was achieved by releasing the threads. At the end of the 150-min reperfusion period, the risk zone was delineated with 0.1% methylene blue. The hearts were then sectioned transversely from the apex to the base in five slices 2 mm in thickness and incubated in 1% triphenyltetrazolium chloride in phosphate buffer (pH 7.4, 37° C.) for 10 min to stain viable tissue red and necrotic tissue white. Computerized planemetric analysis of Sony A900 photographs was performed using Image-Pro Plus 6.3 software to determine the area at risk and area of necrosis expressed as a % of the left ventricle. The obtained values were then used to calculate the infarct size (IS) as a % of risk area according to the formula: Infarct Size=Area of Necrosis/Area at Risk×100%.
The anti-infarction effect of examined substances was investigated in an isolated rat heart infarction model. During occlusion of left coronary artery, the coronary flow in all experimental groups was decreased for 40% (from 11 ml/min to 7 ml/min). Moreover, the drop of developed left ventricular pressure for 50% was observed. […] In reperfusion stage, coronary flow, developed left ventricular pressure, ±dp/dt values were recovered till about 80% of control level. There were no significant differences between control and treatment groups.

[1] = s.c.; cited from earlier work

Molecule | Infarct size, % of control (isolated rat heart) | decrease of infarct size (isolated rat heart) | LD50 [1]
CC[N+](C)(C)CCCC(=O)O.O=C([O-])CCC(=O)O [3-carboxy-N-ethyl-N,N-dimethylpropan-1-aminium 3-carboxypropanoate] | 62.9 ± 4.7*^,#,$ % of control | 37.1% | –
CC[N+](C)(C)CCCC(=O)O [3-carboxy-N-ethyl-N,N-dimethylpropan-1-aminium dihydrogen phosphate] | 56.1 ± 4.4*^,#,$ % of control | 43.9% | –
CC[N+](C)(C)CCCC(=O)O.O=C([O-])c1cc(=O)[nH]c(=O)[nH]1 [3-carboxy-N-ethyl-N,N-dimethylpropan-1-aminium 2,6-dioxo-1,2,3,6-tetrahydropyrimidine-4-carboxylate] | 60.6 ± 6.7*^,#,$ % of control | 39.4% | –
C[N+](C)(C)NCCC(=O)[O-] [Meldonium dihydrate, 3-(2,2,2-Trimethylhydrazinium) propionate dihydrate, reference compound] | 117.9 ± 7.9 % of control | – | –
CC[N+](C)(C)CCCC(=O)O.O=C([O-])/C=C/C(=O)O [3-carboxy-N-ethyl-N,N-dimethylpropan-1-aminium (2E)-3-carboxyacrylate] | 46.5 ± 7.0*^,#,$ % of control | 53.5% | –
C[N+](C)(C)CCCC(=O)[O-] [Gamma-butyrobetaine, γ-Butyrobetaine, reference compound] | 87.6 ± 11.4 % of control | 12.4% | > 7000 mg/kg
3-carboxy-N-ethyl-N,N-dimethylpropan-1-aminium 2-(acetyloxy)benzoate | 61.6 ± 6.7*^,#,$ % of control | 38.4% | –
